In brackets after ≈: the same amount, converted by molar mass. Like-named read-outs stand apart in the source and are kept apart here. One block for each compound: values may come before it.
How the values were obtained:
[1] = Solubility in aqueous solution; format: physicochemical
From the text: In an embodiment prodrugs of the present invention are suitable for oral administration. The skilled person understands that the pH of the gastrointestinal tract changes along its length. For example, the stomach has a pH of around pH 1.5 and the GI tract after the stomach has a pH of around 5 to 7.5. For more detail see, for example, Measurement of gastrointestinal pH profiles in normal ambulant human subjects, Gut. 1988 August; 29(8): 1035-1041. Improved solubility is expected to result in improved absorption, and therefore improved oral bioavailability. Thus improved solubility at any pH value between around pH 1.5 to 8 is expected to improve oral bioavailability. Compounds of the invention were assessed for solubility in aqueous solutions having a pH of from 2 to 10. In an embodiment prodrugs of the invention have a solubility of >0.5 mg/mL in an aqueous solution having a pH of from 2 to 8. In an embodiment prodrugs have a solubility of >5.0 mg/mL, or >10.0 mg/mL, >100.0 mg/mL, or >200.0 mg/mL. In an embodiment the prodrugs have the aforementioned aqueous solubility at a pH within the range of from 4 to 8, or from 6 to 8.
In an embodiment prodrugs of the invention are administered intravenously. High prodrug solubility is advantageous in order to reduce the volume of solution administered to the patient, and to reduce the risk of damage to the circulatory system. Solubility of >10 mg/mL is preferred. Yet more preferred is solubility of >30 mg/mL or >100.0 mg/mL. Yet more preferred is solubility of >200.0 mg/mL. The solubility is measured in an aqueous solution having a pH of from 2 to 10, which pH range is advantageous for intravenous prodrug delivery. See, for example, A guide on intravenous drug compatibilities based on their pH, Nasser S C et al./Pharmacie Globale (IJCP) 2010, 5 (01)). In an embodiment the prodrugs of the claimed invention have solubility of >10 mg/mL in an aqueous solution having a pH of from 2 to 10.

hERG K+ channel = molecular target: T1, hERG K+ channel (Homo sapiens, UniProt Q12809); experiment: hERG assay, IonWorks patch clamp electrophysiology; format: cell-based; conditions: human, pH 7.3; 11 uM; Chinese Hamster Lung cell line stably expressing hERG
T1 construct: a Chinese Hamster Lung cell line stably expressing the full length hERG channel; expressed in transfected cells; host or cells: Chinese Hamster Lung cell line
Procedure: (§1) Compounds of the invention were tested for inhibition of the human ether a go-go related gene (hERG) K^+ channel using IonWorks patch clamp electrophysiology. 8 Point concentration-response curves were generated on two occasions using 3-fold serial dilutions from the maximum assay concentration (33 uM). Electrophysiological recordings were made from a Chinese Hamster Lung cell line stably expressing the full length hERG channel. Single cell ion currents were measured in the perforated patch clamp configuration (100 ug/mL amphoterocin) at room temperature using an IonWorks Quattro instrument. The internal solution contained 140 mM KCl, 1 mM MgCl2, 1 mM EGTA and 20 mM HEPES and was buffered to pH 7.3. The external solution contained 138 mM NaCl, 2.7 mM KCl, 0.9 mM CaCl2, 0.5 mM MgCl2, 8 mM Na2HPO4 and 1.5 mM KH2PO4, and was buffered to pH 7.3. Cells were clamped at a holding potential of […] for 30 s and then stepped to +40 mV for is. This was followed by a hyperpolarising step of 1 s to […] to evoke the hERG tail current. This sequence was repeated 5 times at a frequency of 0.25 Hz. Currents were measured from the tail step at the 5th pulse, and referenced to the holding current. Compounds were incubated for 6-7 min prior to a second measurement of the hERG signal using an identical pulse train. […] A control compound (quinidine) was used.

[2] = molecular target: T2, human ether a go-go related gene (hERG) K+ channel (Homo sapiens, UniProt Q12809); experiment: hERG assay, IonWorks patch clamp electrophysiology; format: cell-based; conditions: Chinese Hamster Lung cell line stably expressing hERG; maximum assay concentration 33 uM
T2 construct: a Chinese Hamster Lung cell line stably expressing the full length hERG channel; expressed in transfected cells; host or cells: Chinese Hamster Lung cell line
Procedure: as §1

[3] = cited from earlier work
[4] = over a range of pH values including pH of 7.4; cited from earlier work
[5] = rat brain; cited from earlier work
[6] = human brain; cited from earlier work
high K+ evoked CSD [7] = conditions: cats; cited from earlier work
high K+ evoked CSD [8] = conditions: rats; cited from earlier work

T2 sequence (Q12809 whole entry): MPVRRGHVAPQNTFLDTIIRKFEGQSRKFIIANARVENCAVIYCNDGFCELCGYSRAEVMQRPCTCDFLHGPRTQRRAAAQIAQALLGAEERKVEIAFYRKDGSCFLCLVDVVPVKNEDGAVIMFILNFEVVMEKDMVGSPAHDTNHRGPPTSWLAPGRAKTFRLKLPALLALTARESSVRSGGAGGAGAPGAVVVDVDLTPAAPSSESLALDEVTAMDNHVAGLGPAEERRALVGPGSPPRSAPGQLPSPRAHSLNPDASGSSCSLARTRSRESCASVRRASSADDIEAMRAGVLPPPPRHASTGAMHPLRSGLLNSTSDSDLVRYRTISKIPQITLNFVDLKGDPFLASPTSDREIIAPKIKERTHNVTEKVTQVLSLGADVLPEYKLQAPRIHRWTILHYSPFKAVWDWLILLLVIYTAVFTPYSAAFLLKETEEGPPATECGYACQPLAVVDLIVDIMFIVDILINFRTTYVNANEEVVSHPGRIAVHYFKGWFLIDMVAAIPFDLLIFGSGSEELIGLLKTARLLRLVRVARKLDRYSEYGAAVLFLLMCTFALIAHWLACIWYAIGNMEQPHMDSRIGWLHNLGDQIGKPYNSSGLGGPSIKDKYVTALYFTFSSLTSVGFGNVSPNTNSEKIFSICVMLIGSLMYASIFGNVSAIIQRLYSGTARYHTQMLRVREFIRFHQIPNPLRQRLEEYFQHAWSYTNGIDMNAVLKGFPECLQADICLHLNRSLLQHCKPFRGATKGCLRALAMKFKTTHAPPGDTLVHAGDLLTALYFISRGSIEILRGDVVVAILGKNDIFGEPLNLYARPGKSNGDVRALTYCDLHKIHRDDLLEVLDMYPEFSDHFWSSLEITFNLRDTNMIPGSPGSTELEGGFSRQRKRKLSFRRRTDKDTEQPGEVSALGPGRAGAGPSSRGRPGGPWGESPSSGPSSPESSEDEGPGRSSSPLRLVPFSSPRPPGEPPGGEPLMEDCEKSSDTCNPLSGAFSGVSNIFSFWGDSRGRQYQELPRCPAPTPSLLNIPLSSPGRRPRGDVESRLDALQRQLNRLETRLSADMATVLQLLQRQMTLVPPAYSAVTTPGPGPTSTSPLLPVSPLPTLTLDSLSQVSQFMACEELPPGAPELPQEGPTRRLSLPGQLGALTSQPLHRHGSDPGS
T1 sequence (Q12809 whole entry): as above

Structure (SMILES): CC(=O)c1ccc2c(c1)[C@H](NC(=O)c1ccc(F)c(Cl)c1)[C@H](OCOC[C@@H](O)CO)C(C)(C)O2 [Example 16, N-[(3S,4S)-6-Acetyl-3-{[(2S)-2,3-dihydroxypropoxy]methoxy}-2,2-dimethyl-3,4-dihydro-2H-1-benzopyran-4-yl]-3-chloro-4-fluorobenzamide]
solubility ([1]; aqueous buffer, pH 3.0): < 1000 µg/mL

Structure (SMILES): CC(=O)c1ccc2c(c1)[C@H](NC(=O)c1ccc(F)c(Cl)c1)[C@H](OC(=O)[C@@H](N)CCCNC(=N)N)C(C)(C)O2.Cl.Cl [Example 12, (3S,4S)-6-Acetyl-4-[(3-chloro-4-fluorobenzene)amido]-2,2-dimethyl-3,4-dihydro-2H-1-benzopyran-3-yl (2S)-2-amino-5-carbamimidamidopentanoate dihydrochloride]
solubility ([1]; pH 4.4, aqueous buffer): > 10000 µg/mL
inhibition at 11 µM (hERG K+ channel): 9%

Structure (SMILES): CC(=O)c1ccc2c(c1)[C@H](NC(=O)c1ccc(F)c(Cl)c1)[C@H](OC(=O)C(C)(C)N)C(C)(C)O2.Cl [Example 6, (3S,4S)-6-Acetyl-4-[(3-chloro-4-fluorobenzene)amido]-2,2-dimethyl-3,4-dihydro-2H-1-benzopyran-3-yl 2-amino-2-methylpropanoate hydrochloride]
solubility ([1]; pH 4.7, aqueous buffer): > 10000 µg/mL

Structure (SMILES): CC(=O)c1ccc2c(c1)[C@H](NC(=O)c1ccc(F)c(Cl)c1)[C@H](OC(=O)[C@@H]1CCCN1)C(C)(C)O2.Cl [Example 5, (3S,4S)-6-Acetyl-4-[(3-chloro-4-fluorobenzene)amido]-2,2-dimethyl-3,4-dihydro-2H-1-benzopyran-3-yl (2S)-pyrrolidine-2-carboxylate hydrochloride]
solubility ([1]; pH 4.4, aqueous buffer): > 10000 µg/mL
IC50 [2]: 1.4 µM

Structure (SMILES): CC(=O)c1ccc2c(c1)[C@H](NC(=O)c1ccc(F)c(Cl)c1)[C@H](OC(=O)[C@@H](N)C(C)C)C(C)(C)O2.Cl [Example 2, (3S,4S)-6-Acetyl-4-[(3-chloro-4-fluorobenzene)amido]-2,2-dimethyl-3,4-dihydro-2H-1-benzopyran-3-yl (2S)-2-amino-3-methylbutanoate hydrochloride]
solubility ([1]; pH 4.4, aqueous buffer): ~5000 µg/mL
inhibition at 11 µM (hERG K+ channel): 38%

Structure (SMILES): CN[C@@H](C)C(=O)O[C@H]1[C@@H](NC(=O)c2ccc(F)c(Cl)c2)c2cc(C(C)=O)ccc2OC1(C)C.Cl [Example 8, (3S,4S)-6-Acetyl-4-[(3-chloro-4-fluorobenzene)amido]-2,2-dimethyl-3,4-dihydro-2H-1-benzopyran-3-yl (2S)-2-(methylamino)propanoate hydrochloride]
solubility ([1]; pH 5.1, aqueous buffer): > 10000 µg/mL

Structure (SMILES): CC(=O)c1ccc2c(c1)[C@H](NC(=O)c1ccc(F)c(Cl)c1)[C@H](OC(=O)[C@H](N)C(C)C)C(C)(C)O2.Cl [Example 3, (3S,4S)-6-Acetyl-4-[(3-chloro-4-fluorobenzene)amido]-2,2-dimethyl-3,4-dihydro-2H-1-benzopyran-3-yl (2R)-2-amino-3-methylbutanoate hydrochloride]
solubility ([1]; pH 4.8, aqueous buffer): < 1000 µg/mL
IC50 [2]: 4.3 µM

Structure (SMILES): CC(=O)c1ccc2c(c1)[C@H](NC(=O)c1ccc(F)c(Cl)c1)[C@H](O)C(C)(C)O2 [Tonabersat]
log P [3]: 3.32
aqueous solubility [4]: 25 µg/mL (≈ 63.8 µM)
binding to unique stereo-selective site [5]: binds selectively and with high affinity
binding to unique stereo-selective site [6]: binds selectively and with high affinity
inhibition of high K+ evoked CSD (high K+ evoked CSD [7]): inhibits high K+ evoked CSD
inhibition of high K+ evoked CSD (high K+ evoked CSD [8]): inhibits high K+ evoked CSD

The next lines start with results.

solubility ([1]; pH 4.6, aqueous buffer): > 2000 µg/mL
Structure (SMILES): CC(=O)c1ccc2c(c1)[C@H](NC(=O)c1ccc(F)c(Cl)c1)[C@H](OC(=O)[C@@H](N)CCC(=O)O)C(C)(C)O2 [Example 14, (4S)-5-{[(3S,4S)-6-Acetyl-4-[(3-chloro-4-fluorobenzene)amido]-2,2-dimethyl-3,4-dihydro-2H-1-benzopyran-3-yl]oxy}-4-amino-5-oxopentanoic acid; trifluoroacetic acid]
inhibition at 11 µM (hERG K+ channel): 8%

solubility ([1]; pH 6.5, aqueous buffer): > 2000 µg/mL
Structure (SMILES): CC(=O)c1ccc2c(c1)[C@H](NC(=O)c1ccc(F)c(Cl)c1)[C@H](OC(=O)[C@@H](N)CC(=O)O)C(C)(C)O2 [Example 13, (3S)-4-{[(3S,4S)-6-Acetyl-4-[(3-chloro-4-fluorobenzene)amido]-2,2-dimethyl-3,4-dihydro-2H-1-benzopyran-3-yl]oxy}-3-amino-4-oxobutanoic acid; trifluoroacetic acid]
inhibition at 11 µM (hERG K+ channel): 19%

solubility ([1]; pH 4.6, aqueous buffer): > 2000 µg/mL
Structure (SMILES): CC(=O)c1ccc2c(c1)[C@H](NC(=O)c1ccc(F)c(Cl)c1)[C@H](OC(=O)[C@@H](N)CCC(N)=O)C(C)(C)O2.Cl [Example 11, (3S,4S)-6-Acetyl-4-[(3-chloro-4-fluorobenzene)amido]-2,2-dimethyl-3,4-dihydro-2H-1-benzopyran-3-yl (2S)-2-amino-4-carbamoylbutanoate hydrochloride]

solubility ([1]; aqueous buffer, pH 4.0): > 10000 µg/mL
Structure (SMILES): CC(=O)c1ccc2c(c1)[C@H](NC(=O)c1ccc(F)c(Cl)c1)[C@H](OC(=O)[C@H](C)N)C(C)(C)O2.Cl [Example 1, (3S,4S)-6-Acetyl-4-[(3-chloro-4-fluorobenzene)amido]-2,2-dimethyl-3,4-dihydro-2H-1-benzopyran-3-yl (2S)-2-aminopropanoate hydrochloride]
IC50 [2]: 6 µM

solubility ([1]; pH 4.2, aqueous buffer): > 10000 µg/mL
Structure (SMILES): CC(=O)c1ccc2c(c1)[C@H](NC(=O)c1ccc(F)c(Cl)c1)[C@H](OC(=O)[C@H](N)CC(C)C)C(C)(C)O2.Cl [Example 4, (3S,4S)-6-Acetyl-4-[(3-chloro-4-fluorobenzene)amido]-2,2-dimethyl-3,4-dihydro-2H-1-benzopyran-3-yl (2R)-2-amino-4-methylpentanoate hydrochloride]

solubility ([1]; pH 4.4, aqueous buffer): > 10000 µg/mL
Structure (SMILES): CC(=O)c1ccc2c(c1)[C@H](NC(=O)c1ccc(F)c(Cl)c1)[C@H](OC(=O)[C@@H](N)CCCCN)C(C)(C)O2.Cl.Cl [Example 9, (3S,4S)-6-Acetyl-4-[(3-chloro-4-fluorobenzene)amido]-2,2-dimethyl-3,4-dihydro-2H-1-benzopyran-3-yl (2S)-2,6-diaminohexanoate dihydrochloride]
inhibition at 11 µM (hERG K+ channel): 0%

solubility ([1]; pH 4.4, aqueous buffer): < 1000 µg/mL
Structure (SMILES): CC(=O)c1ccc2c(c1)[C@H](NC(=O)c1ccc(F)c(Cl)c1)[C@H](OC(=O)[C@@H](N)CC(N)=O)C(C)(C)O2.Cl [Example 10, (3S,4S)-6-Acetyl-4-[(3-chloro-4-fluorobenzene)amido]-2,2-dimethyl-3,4-dihydro-2H-1-benzopyran-3-yl (2S)-2-amino-3-carbamoylpropanoate hydrochloride]
inhibition at 11 µM (hERG K+ channel): 18%

— patent US20160318891A1, “TONABERSAT PRODRUGS” (PROXIMAGEN LIMITED, priority 2013, published 2016)
